# Read-outs that look alike come from different tables or passages of the source.
# Key:
# MCP-1 = MCP-1 in SARS-CoV-2 infected CaCo2 cells; assay type: cell-based, Homo sapiens; conditions: high amount necessary
# ACE2 = ACE2 expression in Calu-3 cells (immunofluorescence microscopy, WES); assay type: cell-based, Homo sapiens; conditions: 100 μM, 24 h
# Description: After this, it was tested whether ACE2 expression is reduced in cells after ATR-002 treatment. Calu-3 cells were treated with ATR-002 for 24 hours and the results were analysed via immunofluorescence microscopy and WES technology. Specifically, Calu-3 cells were seeded on glass cover slips in 24-well plates, 1×10^5 cells per well and incubated for 48 h at 37° C., 5% CO2 After washing the cells with medium (IMDM with 10% FBS and 1% P/S), 1 mL of 100 μM ATR-002 in medium or 1 mL 1% DMSO in medium (solvent control) were added to the wells and incubated for 24 h at 37° C., 5% CO2.
# Then the wells were washed once with PBS and fixed with 300 μL/well 4% PFA in PBS for 10 minutes at room temperature. […] The slides were let dry at 4° C. in the dark and then analysed using a confocal laser scanning microscope (LSM800, Zeiss).
# SARS-CoV-2 strain FI = experiment: Plaque assay, infection of Vero cells with SARS-CoV-2 upon MEK inhibition; assay type: cell-based; conditions: MOI 0.01, 50 μM, 24 h, 36 h and 48 h
# Description: To determine the virus titer a standard plaque assay was performed. Vero cells were infected with SARS-CoV-2 strain FI (MOI 0.01). 1 hour post infection, the cells were treated with 50 μM ATR-002 or the respective amount of DMSO as a control. The compounds were present in the culture medium during the complete infection time. After 24, 36 and 48 hpi, supernatants were collected and virus titers quantified by plaque assay below.
# Vero E6 cells were seeded at 100% confluency in 6-well plates (Greiner Bio-One, Cat. 657-160). 6-fold dilutions of virus samples were prepared in Vero E6 infection medium (IMDM, Gibco, Cat. 12440-053) supplemented with 5% FCS (Capricorn, Cat. FBS-12A) and 1% Penicillin/Streptomycin (Sigma Aldrich Cat. P4333). The cells were washed once with Vero E6 infection medium before infection with 1 mL per well of the virus dilutions for 1 h at 37° C., 5% CO2. […] The virus titer was calculated based on the number of plaques per well and the respective dilution factor.
# [1] = tested on: peripheral blood mononuclear cells (PBMC's); experiment: T-Cell Inflammation Inhibition Assay (PHA Stimulation); assay type: cell-based, human; conditions: ATR-002 100, 50, 25 μM, Dexamethasone 100 nM, 24 h
# [2] = tested on: cytokine & chemokine gene expression in lungs; experiment: Acute lung injury (ALI) mouse model, LPS induced cytokine and chemokine gene expression; assay type: in vivo; conditions: LPS 5 mg/kg i.p.; 25 mg/kg i.p. 1 h post stimulation; 6 h post treatment
# SARS-CoV-2 (FI) [3] = assay type: cell-based; conditions: primary human ALI cultures, MOI 1.0, 50 μM and 100 μM, three cultures
# SARS-CoV-2 (FI) [4] = assay type: cell-based
# [5] = tested on: IL-6, IL-8, MCP-1, IP-10 and CCL5 mRNA; experiment: Pro-inflammatory cytokine mRNA in SARS-CoV-2 infected Calu-3 cells (real-time PCR); assay type: cell-based, Homo sapiens; conditions: Calu-3, SARS-CoV-2 (FI) MOI 0.01, increasing amounts
# [6] = tested on: VSV pseudotype virus carrying the SARS-CoV-2 Spike protein; assay type: cell-based
compound,measurement,setting,value
"O=C(O)c1ccc(F)c(F)c1Nc1ccc(I)cc1Cl [ATR-002, 2-(2-chloro-4-iodophenylamino)-N-3,4-difluoro benzoic acid]",MCP-1 expression,MCP-1,able to reduce MCP-1 expression
same,ACE2 on Calu-3 cells,ACE2,reduction of ACE2
same,viral load (plaque assay),SARS-CoV-2 strain FI,lower viral load than control cells
same,inhibition of cytokine/chemokine stimulation (summary),[1],"significant, dose dependent inhibition"
same,IL-1beta gene expression in lung,[2],decrease
same,IL-8 gene expression in lung,[2],decrease
same,IP-10 gene expression in lung,[2],decrease
same,MCP-1 gene expression in lung,[2],decrease
same,MIP-1beta gene expression in lung,[2],decrease
same,TNF-alpha gene expression in lung,[2],decrease
same,production of progeny viral particles,SARS-CoV-2 (FI) [3],completely blocked the production of progeny viral particles
same,duration of the effect on progeny viral particles,"SARS-CoV-2 (FI) [4]; Calu-3, MOI 0.01, 10-150 μM",maintained over the total infection time of 72 hours
same,production of progeny viral particles,"SARS-CoV-2 (FI) [4]; Calu-3, MOI 0.01, 10-150 μM, 24, 48, 72 h",concentration dependent decrease
same,cell damage of infected cells (light microscopy),SARS-CoV-2 (FI) [4]; Calu-3 infected with SARS-CoV-2,did not show the characteristic cell damage
same,"expression of pro-inflammatory cytokines (IL-6, IL-8, MCP-1, IP-10, CCL5 mRNA)",[5],reduce the expression of pro-inflammatory cytokines
same,internalization of the VSV pseudotype virus (GFP positive cells),[6],reduction in the internalization
